Values quoted from earlier work in patent publication US9938200B2, “Methods for improving bud break” (priority 2010, dated 2018).

Test system: vines
Settings: use over time

N#CN [hydrogen cyanamide]
lowering of the fruitability of vines: 20-30 % per year
